{
  "source": "patent US7851623B2",
  "about": "“Chemical process” (AstraZeneca AB, priority 2006, dated 2010)",
  "key": {"HUVEC [1]": {"system": "HUVEC", "assay": "HUVEC assay, VEGF-stimulated endothelial cell proliferation", "type": "cell-based", "details": "Homo sapiens, read-out: IC50 for inhibition of VEGF-stimulated endothelial cell proliferation"}, "HUVEC [2]": {"system": "HUVEC", "assay": "HUVEC assay, basal endothelial cell proliferation", "type": "cell-based", "details": "Homo sapiens, basal (unstimulated) proliferation, read-out: IC50 for inhibition of basal endothelial cell proliferation"}, "Calu-6 tumour xenograft": {"system": "Calu-6 tumour xenograft", "assay": "in vivo solid tumour model (WO 00/47212), Calu-6 tumour xenograft growth", "details": "once-daily oral, 28 days"}, "tumour models": {"system": "tumour models", "details": "once-daily oral administration; cited from earlier work"}},
  "data": [
    {"compound": "COc1cc2c(Oc3ccc4[nH]c(C)cc4c3F)ncnc2cc1OCCCN1CCCC1", "note": "[AZD2171, 4-[(4-fluoro-2-methyl-1H-indol-5-yl)oxy]-6-methoxy-7-[3-(pyrrolidin-1-yl)propoxy]quinazoline]", "values": [
      {"measurement": "IC50", "setting": "HUVEC [1]", "value": "400 ± 200", "unit": "pM"},
      {"measurement": "IC50", "setting": "HUVEC [2]", "value": "> 500000", "unit": "pM"},
      {"measurement": "inhibition of growth of Calu-6 tumour xenograft", "setting": "Calu-6 tumour xenograft; 1.5 mg/kg/day, P<0.01 one-tailed t test", "value": 49, "unit": "%"},
      {"measurement": "inhibition of growth of Calu-6 tumour xenograft", "setting": "Calu-6 tumour xenograft; 3 mg/kg/day, P<0.0001 one-tailed t test", "value": 69, "unit": "%"},
      {"measurement": "inhibition of growth of Calu-6 tumour xenograft", "setting": "Calu-6 tumour xenograft; 6 mg/kg/day, P<0.0001 one-tailed t test", "value": 91, "unit": "%"},
      {"measurement": "anti-tumour activity in a range of models", "setting": "tumour models", "value": "broad-spectrum anti-tumour activity"}
    ]}
  ]
}
